According to patent US12655139B2, “Isoxazolidines as RIPK1 inhibitors and use thereof” (SANOFI, priority 2020, dated 2026):
Structures can show the parent of a compound that is named as a salt. Where two headings read alike, the source gives them in different places.

Tests used:
[1] = biological target: T1, hRIPK1 (aa 1-375) fusion protein (Homo sapiens, UniProt Q13546); assay: ADP-Glo kinase assay, RIPK1 autophosphorylation; type: biochemical
T1 construct: hRIPK1 (aa 1-375) fusion protein
T1 sequence (Q13546 1-375): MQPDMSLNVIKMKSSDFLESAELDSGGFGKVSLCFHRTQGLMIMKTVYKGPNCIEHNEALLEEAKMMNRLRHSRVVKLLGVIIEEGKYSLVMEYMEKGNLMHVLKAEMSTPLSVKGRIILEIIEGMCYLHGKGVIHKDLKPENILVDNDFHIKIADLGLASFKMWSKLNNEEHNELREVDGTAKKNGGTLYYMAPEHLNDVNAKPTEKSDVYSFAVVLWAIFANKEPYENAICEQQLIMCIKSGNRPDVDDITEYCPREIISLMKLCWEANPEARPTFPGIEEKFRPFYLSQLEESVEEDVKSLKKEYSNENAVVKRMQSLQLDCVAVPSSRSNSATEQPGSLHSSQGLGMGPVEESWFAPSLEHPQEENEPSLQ
Description: Evaluation of Receptor-Interacting Protein Kinase 1 Inhibition.
The catalytic activity of RIPK1 was measured by monitoring the conversion of Adenosine triphosphate (ATP) to Adenosine diphosphate (ADP) due to autophosphorylation using an ADP-Glo kinase kit (Promega, catalog no. V9104).
After another 240 minutes incubation at room temperature, 5 μl Promega ADP-Glo reagent I were added to quench the reaction and deplete unconsumed ATP. After an incubation period of 30 minutes, 10 μl Promega ADP-Glo detection reagent II were added resulting in conversion of ADP to ATP, which generates a light-reaction between luciferase and luciferin. Luminescence was quantified after 30 minutes with a Pherastar FS (BMG LABTECH, Ortenberg).
The adjustment was obtained by nonlinear regression using the Levenberg Marquardt algorithm.

U937 cells = assay: Cellular assay in U937 cells on cell death (necroptosis), TNFα/zVAD.fmk; type: cell-based
Description: Cellular Assay in U937 Cells to Measure the Activity of RIPK1-Inhibitors on Cell Death (Necroptosis).
Cell death was quantified in 96 well plates by determination of the amount of live cell using a CellTiter 96 AQueous reagent (Promega), a calorimetric method to measure the amount of live cells by reducing tetrazolium compound [3-(4,5-dimethylthiazol-2-yl)-5-(3-carboxymethoxyphenyl)-2-(4-sulfophenyl)-2H-tetrazolium, inner salt; MTS] into formazan. Absorbance of formazan was read at 490 nm. The inhibitory activity of the test compound was quantified in a concentration response curve (CRC) experiment. Compounds were obtained as 10 mM stock solutions and were diluted 1 to 10 volumes with DMSO to yield a 1 mM solution. From this solution 2 μl were diluted with 998 μl growth medium. 100 μl of 2 μM compound solution was further diluted sequentially with a dilution factor of 2.5 by adding 150 μl growth medium. A total of 10 concentrations were tested ranging from 10 μM to 0.26 nM or from 1 μM to 0.07 nM.
U937 cells were cultured in RPMI1640 Glutamax and 10% heat inactivated FBS. 50 μl cell suspension containing 1×10^6 cells/ml supplemented with 50 μM zVAD.fmk (Benzyloxycarbonyl-Val-Ala-Asp (OMe) fluoromethylketone) and 100 ng/ml recombinant human TNFα were dispensed in each well of a 96-well plate. 50 μl of compound dilutions (see above) were added and the cell suspension incubated overnight (18 to 24 hours) at 37° C., 5% CO2 in a humidified atmosphere (95% rH). High (no compound) and low control (no TNFα, zVAD.fmk) were tested with 7 replicates; all compound concentrations were tested in duplicates on each experimental plate.
CellTiter 96 Aqueous reagent was mixed (100 μl PMS (phenazine methosulfate) solution/2 ml MTS (3-(4,5-[…])-5-(3-carboxymethoxyphenyl)-2-(4-sulfophenyl)-2H-tetrazolium, inner salt) solution) and 20 μl were added per well. After 4 hours incubation at 37° C. (5% CO2 95% rH) optical density was measured at 490 nm on a microplate reader (Tecan Infinite M1000).
The % inhibition is expressed as percentage of the maximal inhibition value obtained in the absence of TNFα/zVAD.fmc.

[2] = Homo sapiens, U-937, Table 2, read-out: U937 IC50
[3] = Homo sapiens, U-937, Key compound table 4, read-out: U937 IC50 (uM) Mean

Row | SMILES | IC50 ([1]; Table 1) [nM] | IC50 (U937 cells; [2]) [µM] | IC50 ([1]; Key compound table 4) [nM] | IC50 (U937 cells; [3]) [µM] | IC50 (U937 cells; Table 2, listed as 10, read-out: U937 IC50) [µM]
1 | N#Cc1cncc([C@@H]2CCON2C(=O)C2CCN(c3cc(C(N)=O)ncn3)CC2)c1 [Ex. 001] | 32.6 | 0.133 |  |  | 
2 | N#Cc1cncc([C@@H]2CCON2C(=O)C2CCN(c3nccc(C(N)=O)n3)CC2)c1 [Ex. 004] |  |  | 16 | 0.022 | 
3 | N#Cc1cncc([C@@H]2CCON2C(=O)C2CCN(c3nccc(C(=O)O)n3)CC2)c1 [Ex. 009] | 4690 | > 10 |  |  | 
4 | COC(=O)c1ccnc(N2CCC(C(=O)N3OCC[C@H]3c3cncc(C#N)c3)CC2)n1 [Ex. 010, Methyl 2-[4-[(3S)-3-(5-cyano-3-pyridyl)isoxazolidine-2-carbonyl]-1-piperidyl]pyrimidine-4-carboxylate] | 12 |  |  |  | 0.21
5 | N#Cc1cncc([C@@H]2CCON2C(=O)C2CCN(c3nccc(C#N)n3)CC2)c1 [Ex. 011] | 24.5 | 0.0126 |  |  | 
6 | CC1(C(=O)N2OCC[C@H]2c2cncc(C#N)c2)CCN(c2nccc(C(N)=O)n2)CC1 [Ex. 019] | 23.5 | 0.0573 |  |  | 
7 | COC(=O)c1ccnc(N2CCC(C)(C(=O)N3OCC[C@H]3c3cncc(C#N)c3)CC2)n1 [Ex. 020, Methyl 2-[4-[(3S)-3-(5-cyano-3-pyridyl)isoxazolidine-2-carbonyl]-4-methyl-1-piperidyl]pyrimidine-4-carboxylate] | 10.7 | 0.118 |  |  | 
8 | CC1(C(=O)N2OCC[C@H]2c2cncc(C#N)c2)CCN(c2nccc(C(=O)O)n2)CC1 [Ex. 021] | 70.4 | > 10 |  |  | 
9 | N#Cc1cncc([C@@H]2CCON2C(=O)C2CCN(c3cc(C(N)=O)ccn3)CC2)c1 [Ex. 026] | 62.7 | 1.9 |  |  | 
10 | N#CCOc1nc(N2CCC(C(=O)N3OCC[C@H]3c3cncc(C#N)c3)CC2)ncc1F [Ex. 028] | 17.3 | 0.00105 |  |  | 
11 | N#Cc1cncc([C@@H]2CCON2C(=O)C2CCN(c3ncc(F)c(OCC(=O)O)n3)CC2)c1 [Ex. 033, 2-[2-[4-[(3S)-3-(5-Cyano-3-pyridyl)isoxazolidine-2-carbonyl]-1-piperidyl]-5-fluoro-pyrimidin-4-yl]oxyacetic acid TFA salt] | 511 | > 10 |  |  | 
12 | N#Cc1cncc([C@@H]2CCON2C(=O)C2CCN(c3ncc(F)c(OCC(N)=O)n3)CC2)c1 [Ex. 035] | 66.1 | 0.183 |  |  | 
13 | N#Cc1cncc([C@@H]2CCON2C(=O)C2CCN(c3ncc(F)c(N)n3)CC2)c1 [Ex. 039] | 50.1 | 0.18 |  |  | 
14 | Cc1cncc([C@@H]2CCON2C(=O)C2CCN(c3nccc(C(N)=O)n3)CC2)n1 [Ex. 044] |  |  | 9 | 0.009 | 
15 | Cc1cncc([C@@H]2CCON2C(=O)C2CCN(c3nccc(C#N)n3)CC2)n1 [Ex. 045] | 17.2 | 0.0664 |  |  | 
16 | Cc1cnc(N2CCC(C(=O)N3OCC[C@H]3c3cncc(C#N)c3)CC2)nc1C(N)=O [Ex. 053] | 11.7 | 0.0561 |  |  | 
17 | NC(=O)c1ccnc(N2CCC(C(=O)N3OCC[C@H]3c3cncc(N4CCC4=O)c3)CC2)n1 [Ex. 055] | 101 | 0.844 |  |  | 
18 | N#Cc1ccnc(N2CCC(C(=O)N3OCC[C@H]3c3cncc(N4CCC4=O)c3)CC2)n1 [Ex. 056, 2-[4-[(3S)-3-[5-(2-Oxoazetidin-1-yl)-3-pyridyl]isoxazolidine-2-carbonyl]-1-piperidyl]pyrimidine-4-carbonitrile] | 42.5 | 2.2 |  |  | 
19 | CCOC(=O)c1ncnc(N2CCC(C(=O)N3OCC[C@H]3c3cncc(C#N)c3)CC2)c1F [Ex. 057, Ethyl 6-[4-[(3S)-3-(5-cyano-3-pyridyl)isoxazolidine-2-carbonyl]-1-piperidyl]-5-fluoro-pyrimidine-4-carboxylate] | 30.9 | 0.11 |  |  | 

Row | SMILES | IC50 ([1]; Table 1) [nM] | IC50 (U937 cells; [2]) [µM] | IC50 ([1]; Key compound table 4) [nM] | IC50 (U937 cells; [3]) [µM] | IC50 (U937 cells; Table 2, listed as 10, read-out: U937 IC50) [µM]
20 | N#Cc1cncc([C@@H]2CCON2C(=O)C2(F)CCN(c3ncc(F)c(C(N)=O)n3)CC2)c1 [Ex. 059] | 20.8 | 0.0507 |  |  | 
21 | CC1(C(=O)N2OCC[C@H]2c2cncnc2)CCN(c2nccc(C(N)=O)n2)CC1 [Ex. 061] | 39.1 | 0.256 |  |  | 
22 | COc1nc(N2CCC(C(=O)N3OCC[C@H]3c3cncnc3)CC2)ncc1F [Ex. 064] | 20.4 | 0.0642 |  |  | 
23 | N#Cc1ccnc(N2CCC(C(=O)N3OCC[C@H]3c3cncnc3)CC2)c1 [Ex. 065] | 65.6 | 0.612 |  |  | 
24 | N#Cc1cncc([C@@H]2CCON2C(=O)C2CCN(c3cnc(C#N)cn3)CC2)c1 [Ex. 066] | 35.1 | 0.205 |  |  | 
25 | N#Cc1cncc([C@@H]2CCON2C(=O)C2CCN(c3cncc(C#N)n3)CC2)c1 [Ex. 067] | 84.8 | 0.553 |  |  | 
26 | N#Cc1cncc([C@@H]2CCON2C(=O)C2CCN(c3ncc(F)c(C(N)=O)n3)CC2)c1 [Ex. 068] |  |  | 11 | 0.003 | 
27 | N#Cc1cncc([C@@H]2CCON2C(=O)C2CCN(c3cncc(C(N)=O)n3)CC2)c1 [Ex. 71] | 25.6 | 0.964 |  |  | 
28 | N#Cc1cncc([C@@H]2CCON2C(=O)C2CCN(c3cnc(C(N)=O)cn3)CC2)c1 [Ex. 072] | 25 | 0.554 |  |  | 
29 | N#Cc1cncc([C@@H]2CCON2C(=O)C2CCN(c3ncnc(C(N)=O)c3F)CC2)c1 [Ex. 073] | 11 | 0.103 |  |  | 
30 | NC(=O)c1nc(N2CCC(C(=O)N3OCC[C@H]3c3cnccn3)CC2)ncc1F [Ex. 075] |  |  | 8 | 0.003 | 
31 | NC(=O)c1nc(N2CCC(C(=O)N3OCC[C@H]3c3cncc(F)c3)CC2)ncc1F [Ex. 080] | 10.3 | 0.00337 |  |  | 
32 | Cc1ncc([C@@H]2CCON2C(=O)C2CCN(c3nccc(C(N)=O)n3)CC2)cc1C#N [Ex. 081] | 15.7 | 0.0297 |  |  | 
33 | NC(=O)c1ccnc(N2CCC(C(=O)N3OCC[C@H]3c3ccc(Cl)cn3)CC2)n1 [Ex. 083] | 16.1 | 0.0495 |  |  | 
34 | Cc1ncc([C@@H]2CCON2C(=O)C2CCN(c3ncc(F)c(C(N)=O)n3)CC2)cc1C#N [Ex. 085] | 15.3 | 0.0206 |  |  | 
35 | Cc1cnc([C@@H]2CCON2C(=O)C2CCN(c3nccc(C(N)=O)n3)CC2)cn1 [Ex. 087] | 9.55 | 0.0505 |  |  | 
36 | CCOC(=O)N1CC(NC(=O)c2ccnc(N3CCC(C(=O)N4OCC[C@H]4c4cncc(C#N)c4)CC3)n2)C1 [Ex. 088] | 33.6 | 0.158 |  |  | 
37 | N#Cc1cncc([C@@H]2CCON2C(=O)[C@H]2CCN(c3nccc(C(N)=O)n3)C[C@@H]2F)c1 [Ex. 093] | 4.16 | 0.0193 |  |  | 
